Experimental findings from patent US6534496B1, “Thermogenic composition and benzazepine thermogenics” (Takeda Chemical Industries, Inc., priority 1997, dated 2003) are described below.

SMILES strings stand for the structures. Counter-ions that a name gives are not always drawn.

In general, melting point refers to the temperature, or range, at which the solid turns liquid. As for `O=C(CCC1CCN(Cc2cccnc2)CC1)c1ccc2c(c1)CN(Cc1ccccc1)CCO2` (as salt: hydrochloride), the melting point lay within 228 to 230 °C.

For the molecule `CCOC(=O)C1(C(=O)OCC)Oc2ccc(CN3CCC(CCC(=O)c4ccc5c(c4)CN(Cc4ccc(F)cc4)CCO5)CC3)cc2O1` (as salt: hydrochloride), the melting point was 199 °C (dec.).

Molecule `O=C(O)COc1cccc(CN2CCC(CCC(=O)c3ccc4c(c3)CN(Cc3ccc(F)cc3)CCO4)CC2)c1` (as salt: hydrochloride) registered a melting point of 201 to 204 °C.

`CC(c1ccccc1)N1CCC(CCC(=O)c2ccc3c(c2)CN(Cc2ccc(F)cc2)CCO3)CC1` (stereo not shown) (as salt: hydrochloride) yielded a melting point of 235 to 237 °C.

As for `O=C(CCC1CCN(Cc2ccncc2)CC1)c1ccc2c(c1)CN(Cc1ccccc1)CCO2` (as salt: hydrochloride), the melting point is 243 to 245 °C.

`Cc1cccc(CN2CCC(CCCC(=O)c3ccc4c(c3)CCN(Cc3ccccc3C)CC4)CC2)c1` (as salt: hydrochloride) had a melting point of 179 to 182 °C.

Turning to `O=C(CCC1CCN(Cc2cccc(C(F)(F)F)c2)CC1)c1ccc2c(c1)CN(Cc1ccccc1)CCO2` (as salt: hydrochloride), the melting point lay within 235 to 237 °C.

`O=C(CCC1CCN(Cc2ccc(C(F)(F)F)cc2)CC1)c1ccc2c(c1)CN(Cc1ccccc1)CCO2` (as salt: hydrochloride) returned a melting point of 239 to 241 °C.

For `Cc1ccccc1CN1CCc2ccc(C(=O)CCCC3CCN(Cc4ccccc4Cl)CC3)cc2CC1` (as salt: hydrochloride), the melting point lay within 165 to 168 °C.

`O=C(CCC1CCN(Cc2ccc3c(c2)OCO3)CC1)c1ccc2c(c1)CN(Cc1ccccc1)CCO2` (as salt: hydrochloride): the melting point fell in the range of 233 to 235 °C.

As to `O=C(CCCC1CCN(Cc2cccc(Cl)c2)CC1)c1ccc2c(c1)CCN(Cc1ccccc1)CC2` (as salt: hydrochloride), the melting point is 230 to 234 °C (dec.).

In the case of `O=C(CCCC1CCN(Cc2cccc(F)c2)CC1)c1ccc2c(c1)CCN(Cc1ccccc1)CC2` (as salt: hydrochloride), the melting point was 245 to 248 °C (dec.).

Consider `O=C(CCC1CCN(Cc2cc([N+](=O)[O-])cc([N+](=O)[O-])c2)CC1)c1ccc2c(c1)CN(Cc1ccccc1)CCO2` (as salt: hydrochloride), for which the melting point is 232 °C (dec.).

On to `O=C(CCC1CCN(Cc2cc(F)cc(F)c2)CC1)c1ccc2c(c1)CN(Cc1ccccc1)CCO2` (as salt: hydrochloride), for which the melting point is 241 to 243 °C.

`O=C(CCC1CCN(Cc2cc(C(F)(F)F)cc(C(F)(F)F)c2)CC1)c1ccc2c(c1)CN(Cc1ccccc1)CCO2` (as salt: hydrochloride) displayed a melting point of 234 to 236 °C.

Regarding `Cc1cccc(CN2CCc3ccc(C(=O)CCCC4CCN(Cc5ccc(F)cc5)CC4)cc3CC2)c1` (as salt: hydrochloride), the melting point lay within 209 to 212 °C.

The molecule `Cc1ccc(CN2CCC(CCCC(=O)c3ccc4c(c3)CCN(Cc3cccc([N+](=O)[O-])c3)CC4)CC2)cc1` (as salt: hydrochloride) registered a melting point of 172 to 174 °C.

In turn, `Cc1ccc(CN2CCC(CCCC(=O)c3ccc4c(c3)CCN(Cc3ccccc3Cl)CC4)CC2)cc1` (as salt: hydrochloride) had a melting point of 174 to 178 °C.

`Cc1ccc(CN2CCC(CCCC(=O)c3ccc4c(c3)CCN(Cc3ccc(Cl)cc3)CC4)CC2)cc1` (as salt: hydrochloride) gave a melting point of 230 to 234 °C.

Take `O=C(CCC1CCNCC1)c1ccc2c(c1)CN(Cc1ccc(F)cc1)CCC2` (as salt: hydrochloride): the melting point is 245 to 247 °C.

On to `O=C(CCC1CCN(Cc2cccc(C(F)(F)F)c2)CC1)c1ccc2c(c1)CN(Cc1ccc(F)cc1)CCC2` (as salt: hydrochloride), for which the melting point lay within 197 to 199 °C.

Molecule `COC(=O)c1ccccc1CN1CCc2ccc(C(=O)CCCC3CCN(Cc4ccccc4C)CC3)cc2CC1` (as salt: hydrochloride) showed a melting point of 111 to 113 °C.

Turning to `O=C(CCCC1CCN(Cc2ccccc2Cl)CC1)c1ccc2c(c1)CCN(Cc1ccc(F)cc1F)CC2` (as salt: hydrochloride), the melting point lay within 193 to 196 °C.

Turning to `Cc1ccccc1CN1CCC(CCCC(=O)c2ccc3c(c2)CCN(Cc2ccc(F)cc2F)CC3)CC1` (as salt: hydrochloride), the melting point is 208 to 210 °C.

The molecule `Cc1ccccc1CN1CCc2ccc(C(=O)CCCC3CCN(Cc4ccccc4N)CC3)cc2CC1` (as salt: hydrochloride) had a melting point of 230 to 235 °C.

On to `Cc1ccccc1CN1CCc2ccc(C(=O)CCCC3CCN(Cc4ccccc4NS(C)(=O)=O)CC3)cc2CC1` (as salt: hydrochloride), for which the melting point was 185 to 195 °C (dec.).

Molecule `COC(=O)c1ccccc1CN1CCC(CCCC(=O)c2ccc3c(c2)CCN(Cc2ccccc2C)CC3)CC1` (as salt: hydrochloride) returned a melting point of 189 to 192 °C.

With `O=C(CCC1CCNCC1)c1ccc2c(c1)CCN(Cc1ccc(F)cc1)CC2` (as salt: hydrochloride), the melting point was 225 to 227 °C (dec.).

In the case of `COc1ccc(CN2CCC(CCC(=O)c3ccc4c(c3)CCN(Cc3ccc(F)cc3)CC4)CC2)cc1OC` (as salt: hydrochloride), the melting point lay within 199 to 203 °C.

With `O=C(CCC1CCN(Cc2ccccc2)CC1)c1ccc2c(c1)CCN(Cc1ccc(F)cc1)CC2` (as salt: hydrochloride), the melting point is 217 to 220 °C.

As to `CCOC(=O)c1ccc(CN2CCC(CCC(=O)c3ccc4c(c3)CCN(Cc3ccc(F)cc3)CC4)CC2)cc1` (as salt: hydrochloride), the melting point is 212 to 218 °C (dec.).

Take `Cc1ccc(CN2CCC(CCC(=O)c3ccc4c(c3)CN(Cc3ccccc3)CCO4)CC2)cc1` (as salt: hydrochloride): the melting point lay in the range of 236 to 238 °C.

`O=C(CCC1CCN(Cc2ccc(O)cc2)CC1)c1ccc2c(c1)CCN(Cc1ccc(F)cc1)CC2` (as salt: hydrochloride) yielded a melting point of 166 to 169 °C.

`O=C(CCC1CCN(Cc2ccccc2F)CC1)c1ccc2c(c1)CN(Cc1ccccc1)CCO2` (as salt: hydrochloride) registered a melting point of 242 to 244 °C.

In turn, `O=C(CCC1CCN(Cc2cccc(F)c2)CC1)c1ccc2c(c1)CN(Cc1ccccc1)CCO2` (as salt: hydrochloride) registered a melting point of 241 to 243 °C.

With `O=C(CCC1CCN(Cc2cccc(C(F)(F)F)c2)CC1)c1ccc2c(c1)CN(Cc1ccc(F)cc1)CCO2` (as salt: hydrochloride), the melting point lay within 225 to 227 °C.

For `O=C(CCC1CCN(Cc2ccccc2Cl)CC1)c1ccc2c(c1)CN(Cc1ccc(F)cc1)CCO2` (as salt: hydrochloride), the melting point is 227 to 229 °C.

`O=C(CCC1CCN(Cc2ccccc2C(F)(F)F)CC1)c1ccc2c(c1)CN(Cc1ccc(F)cc1)CCO2` (as salt: hydrochloride): the melting point was in the range of 203 to 204 °C.

`O=C(CCC1CCN(Cc2ccccn2)CC1)c1ccc2c(c1)CN(Cc1ccccc1)CCO2` (as salt: hydrochloride) yielded a melting point of 238 to 240 °C.

For the molecule `COc1ccc(CN2CCc3ccc(C(=O)CCC4CCN(Cc5ccc(F)cc5)CC4)cc3CC2)cc1` (as salt: hydrochloride), the melting point is 218 to 226 °C (dec.).
